Here are results for two substances from patent US20130150430A1, “Methods for Impairing the P53/HDM2 Auto-Regulatory Loop in Multiple Myeloma Development Using mIR-192, mIR-194 and mIR-215” (THE OHIO STATE UNIVERSITY, priority 2011, published 2013).

Common to all, as to assay type: cell-based, human
The test system of one series is WT p53 MM cells. Put plainly: Colony suppression assay after lentiviral miRNA transduction. The settings on record: lentivirus-transduced WT p53 cells; miR-34a internal control; scored at 14 days. As for the experimental part:
FIG. 3E, FIG. 3F: Soft agar colony suppression assay in WT TP53 and mutant TP53 MM cell lines after miRNAs transduction by lentivectors.
A total of 30×10^3 cells were infected with Lenti-mir-192: PMIRH 192-PA-1 Lenti-mir-194-1:PMIRH 1941PA-1; Lenti-mir-215:PMIRH 215 PA-1; Control Lentivector(pCDH-CMV-EFI-copGFP cDNA cloning and Expression vector): CD511 B-1 (System Biosciences) as per the manufacturer's protocol. MM cells were plated in quadruplicate in 1 mL of methylcellulose medium for Mouse cells (Cat#03234, Stem cell Technologies) in 6-well culture plates. Colonies consisting of more than 40 (125μ) cells were scored at 14 days.

For series [1], the system named is RPMI-8226 cells expressing mutant TP53. Put plainly: MTS cell viability assay after miRNA transfection. The settings on record: transfected RPMI-8226 cells. The source says: (§1) FIG. 3A, FIG. 3B, FIG. 3C, FIG. 3D: MTS assay performed in MM1s (FIG. 3A), NCI-929 (FIG. 3B), KMS28BM (FIG. 3C) and RPMI-8226 (FIG. 3D) cell lines. Cells were transfected with miR-192, miR-215 and scrambled sequence (Scr) and were harvested at 24, 48, and 72 hrs after transfection. P values are indicated.
(§2) CD-138+ PCs obtained from new diagnosed MM subjects and isolated as previously described were transfected by using nucleoporation (LONZA) Cell Line Nucleofector Kit V (Cat#VCA-1003). MM1s, NCI-H929 cell lines were transfected by using nucleoporation (LONZA) Cell Line Nucleofector Kit V (Cat#VCA-1003). Instead for U266, KMS-28BM and RPMI-8226 Cell Line Nucleofector Kit C (Cat#VCA-1004) was used. Specifically for primary cells 1×10^6 CD-138+ PCs were resuspended in […] of V solution and 100 nM miRNA precursors (Ambion) was used for the transfection reaction. For MM cell lines 5×10^6 cells were re-suspended in 100 μl of nucleofector solution V/C and 100 nM of miRNAs precursor or 100 nM LNA miRNA antisense oligonucleotides (Ambion) was used for each transfection point. Protein lysates and total RNA were collected at the time indicated. miRNA processing and expression were verified by northern blot and stem-loop qRT-PCR.
(§3) Cells were plated in 96-well plates in triplicate and incubated at 37° C. in a 5% CO2 incubator. Cell viability was examined with 3-(4,5-dimethylthiazol-2-yl)-2,5-dipheniltetrazolium bromide (MTT)-Cell Titer 96AQueous One Solution Cell Proliferation Assay (Promega), according to the manufacturer's protocol. Metabolically active cells were detected by adding 20 μl of MTT to each well. After 1 hr incubation, the plates were analyzed in a Multi label Counter (Bio-Rad Laboratories). Apoptosis was assessed using Annexin V-FITC apoptosis detection kits followed by flow cytometric analysis. For Annexin V staining, MM cells (pre-miRNAs pool or Scrambled transfected) were treated with MI-219 at different concentrations (0, 2.5, 5.0, 10 μM) for 24 hr and then treated as for DNA content analysis, except that fixation was omitted and the Cells (5×10^5 per sample) were resuspended in PBS containing 25 μg/ml Annexin-V-FLUOS (Roche Applied Science) and 50 μg/ml PI prior to FACS analysis. The percentage of apoptosis indicated was corrected for background levels found in the corresponding untreated controls. The percentage of apoptotic cells was expressed as the mean±SD of three experiments.

The subject of series [2] is MM cells carrying WT TP53 (MM1s, NCI-H929, KMS28BM). Put plainly: MTS cell viability assay after miRNA transfection. Conditions: transfected cells vs scrambled sequences, 24, 48, 72 hrs after transfection.
Source text: as §1, §2, §3

The subject of series [3] is NCI-H929 and RPMI-8226 IGF-1 treated cells. Put plainly: Intra-epithelial trans-well migration assay with IGF-1 as attractant. The settings on record: ectopic expression, vs Scr control. The source says:
FIG. 7B: Intra-epithelial migration assay in MM cells miRNAs transfected using HS-5 cells at different concentrations of IGF-1 as attractant. Bars indicate relative fold change of migration compared with the control ±SD.
FIG. 21C: Intra-epithelial migration assay in MM1s and RPMI-8226 cells (pre-miRNA-192, -194, -215, Scr-transfected) using HS-27A stromal cell as cellular layer at different concentrations of IGF-1 as attractant. Bars indicate relative fold change of migration compared with the control. All experiments were performed in triplicate.
To this end, the inventors used intra-epithelial trans-well migration assay with IGF-1 at various concentrations as attractant and two bone marrow-derived stromal cells, HS-5 (fibroblast-like) and HS-27A (epithelial-like) as cell layer.
IGF-I-induced MM transendothelial migration was determined using 24 well, 6.5 mm internal diameter transwell cluster plates with polycarbonate membranes ([…] pore size) separating the 2 chambers (Corning Costar, Cambridge, Mass.). Bone marrow stromal cell lines HS-5 and HS-27A were grown on the insert for 24 hrs to produce a confluent monolayer. […] At the end of the incubation period, cells migrating through endothelial or bone marrow stromal cell layers into the lower chamber were harvested, stained with trypan blue, and counted under a microscope.

Regarding “miR-192: microRNA, p53-activated, down-regulated in MM; transfected as miRNA precursor (Ambion) or lentivector; SEQ ID NO:56 (CUGACCUAUGAAUUGACAGCC; listed as RNA, chemistry not given here; listed as Homo sapiens)”, in the series with WT p53 MM cells, the colony formation result was “suppressed colony formation to an extent comparable to miR-34a”. Moreover, the results for the “growth arrest (MTS assay)” value in series [1] and in series [2] were “did not detect this effect” and “significant growth arrest”, respectively. Besides, the “migration and tissue invasion” value in series [3] is “significant decrease”.

On to “miR-215: microRNA, p53-activated, down-regulated in MM; transfected as miRNA precursor (Ambion) or lentivector; SEQ ID NO:58 (AUGACCUAUGAAUUGACAGAC; listed as RNA, chemistry not given here; listed as Homo sapiens)”, for which the colony formation entry in the series with WT p53 MM cells was “suppressed colony formation to an extent comparable to miR-34a”. The “growth arrest (MTS assay)” value in series [1] is listed as “did not detect this effect”; in series [2] it was “significant growth arrest”. Besides, the “migration and tissue invasion” value in series [3] is “significant decrease”.
